Experimental data taken from patent publication US9284310B2, “Inhibitors of cytomegalovirus” (Boehringer Ingelheim International GmbH, priority 2012, dated 2016).
pEC50: −log10 of the molar value.

What was measured:
HCMV AD169 virus [1] = assay: HCMV AD169 CPE Assay (Example A); type: cell-based; settings: Human betaherpesvirus 5, AD169, MRC5, 216 h, MRC-5 cells, 9 days, MTS readout
Method: This assay format is a CPE (Cytopathic effect)-based assay that determines the ability of compounds to protect cells against infection with a dye reduction assay (MTS of CellTiter 96® AQueous Non-Radioactive Cell Proliferation Assay from Promega). The conversion of MTS into aqueous, soluble formazan is performed by dehydrogenase enzymes found in metabolically active cells. The quantity of formazan product determined by absorbance at 490 nm is directly proportional to the number of living cells in culture.
(§1) Serial dilutions of the DMSO stock compound solution are performed using DMSO in columns 2-11 and 14-23. DMSO alone is present in columns 1, 12, 13 and 24. Four μL of the DMSO serial dilutions is obtained and diluted using […] of D-MEM 5% FBS culture medium to obtain 4% DMSO (7×).
To perform the assay, 10 µL of the freshly prepared 4% DMSO serial dilution plate is added to the assay plate containing 40 μL of MRC-5 cells plated the day before (10000 cells per well). Twenty μL of diluted virus is added to columns 2-12 and 14-24 and only D-MEM 5% FBS medium to uninfected control (columns 1 and 13) for a final DMSO concentration of 0.6%.
The virus dilution is based on the amount of virus required to obtain a Signal-to-Background of 3-4 (generally between 0.1 and 1 μL of virus stock per well or MOI=0.05). The assay plates are incubated at 37° C. with 5% CO2 for 9 days in order to obtain 100% CPE in infected control without compound (columns 12 and 24). Ten μL of freshly mixed room temperature MTS/PMS (1:20 v/v) is added and the plates are incubated at 37° C. with 5% CO2 for 4-5 h (until signal saturation at 2.3 in the 100% CPE control). The plates are sealed with TopSeal for biosafety and read on the Envision plate reader (Perkin-Elmer) or equivalent at OD 492 nm.

[2] = system: HCMV AD169-Bac-Luc2 US2-US6 clone #26 virus; assay: HCMV AD169-Bac Luciferase Assay (Example B); type: cell-based, Human Cytomegalovirus; settings: Human betaherpesvirus 5, AD169, MRC5, 72 h, read-out: EC50 Example B
Text: This assay format is a luciferase reporter-based assay that determines the ability of compounds to inhibit the infection by detecting a luciferase signal decrease following the addition of BIGlo substrate (preparation indicated below) directly in the culture media. Mono-oxygenation of luciferin is catalyzed by luciferase in the presence of Mg2+, ATP and molecular oxygen. The generation of oxyluciferin is a luminescent reaction that can be detected with the proper platereader. Human Cytomegalovirus AD169-Bac is obtained from Dr. Thomas Shenk at Princeton University (reference paper Yu et al. 2002—J. Virol. 76 (5):2316-2328, herein incorpoarated by reference) and modified by recombineering to introduce a humanized firefly luciferase gene (Luc2) at the US2-US6 position in the HCMV genome. The virus is expanded in MRC-5 cells.
as §1
To perform the assay, 7 μL of the freshly prepared 4% DMSO serial dilution plate is added to the assay plate containing […] of MRC-5 cells plated the day before (10000 cells per well). Seventeen μL of diluted virus is added to columns 2-12 and 14-24 and only D-MEM 5% FBS medium to uninfected control (columns 1 and 13) for a final DMSO concentration of 0.6%. The virus dilution is based on the amount of virus required to obtain the highest luciferase signal possible without CPE (generally between 0.05 and 1 μL of virus stock per well or MOI=0.02). The assay plates are incubated at 37° C. with 5% CO2 for 3 days. Fifteen μL of room temperature BIGlo buffer is added to room temperature assay plates also incubated at room temperature for 15 minutes. The plates are sealed with TopSeal for biosafety and the luminescence signal is read on the TopCount plate reader (Perkin-Elmer) or equivalent.

HCMV AD169 virus [3] = assay: HCMV AD169 qPCR 96-Well Assay (Example C); type: cell-based; settings: Human betaherpesvirus 5, AD169, MRC5, 72 h; qPCR of viral DNA, MRC-5 cells, 3 days
Method: The hCMV quantitative PCR (qPCR) assay evaluates the ability of a compound to inhibit, directly or indirectly, the replication of hCMV viral DNA during the first 72 h following the infection. Compounds that inhibit either entry or the hCMV polymerase are active in this assay. Compounds are tested in the qPCR assay in 96-well plates, using a 9-point dose-response with 8 compounds for each 96-well plate. The assay was adapted from the method described by Schnepf et al., Rapid determination of antiviral drug susceptibility of human cytomegalovirus by real-time PCR, Antiviral Research 81 (2009) 64-67.
Final Concentrations: • 10 mM Tris-HCl pH8.0 • 50 mM KCl • 2 mM MgCl2 • 0.45% Tween20 • 0.45% Nonidet P40
Serial dilutions of the DMSO stock compound solution are performed using DMSO in columns 2-10. DMSO alone is present in columns 1 and 11. Column 12 remains empty. Diluted compounds are further diluted with DMEM 5% FBS cell culture medium.
To perform the assay, 25 μL of inhibitor dilutions freshly prepared is added to the assay plate containing 50 μL of MRC-5 cells plated the day before (30000 cells per well). In a 9 point dose-response, column 1 contains mock infected cells and serves at negative control, with the appropriate concentration of DMSO, columns 2 to 10 contain compound dilutions and column 11 contains infected cells, with the appropriate concentration of DMSO and serves as the positive control. Column 12 serves for the standard curve in the qPCR process. Twenty-five μL of virus diluted in DMEM 5% FBS medium (to infect at MOI=0.05) is added to columns 2-11 and only D-MEM 5% FBS medium to uninfected control (column 1) for a final DMSO concentration of 0.6%. Incubate plates at 37° C. in 5% CO2 incubator for 3 days. Whole cell lysates are then obtained by adding 100 μL of Cell lysis buffer to each well including freshly added Proteinase K at a ratio of 1:5 (i.e. 200 μL Proteinase K:1000 μL Cell Lysis buffer) and incubating the assay plate at 56° C. for 1 h. Plates are centrifuged at 1300 rpm for 2 minutes to remove any condensation before proceeding with the qPCR.
The cell lysate is carefully pipetted up and down to mix well and diluted 1:40 in H2O to give a final dilution of 1:80 relative to the 100 μL of lysis buffer that Is added to the cells. 5 μL of diluted lysate is used for the qPCR reaction. An incubation of 5 minutes at 95° C. in a PCR machine is required to inactivate the Proteinase K. The cell lysates can be stored at −20° C. or used to perform qPCR immediately.
A 81 bp fragment of US17 gene from AD169 is amplified by PCR using primers qHCMV7 and qHCMV8. The PCR product is cloned into pCR4 TOPO vector (Invitrogen) and a clone harboring the insert is selected. A mitochondrial DNA is also added to normalize the HCMV copy number. Serial dilutions of the US17 plasmid and mitochondrial DNA are performed in heat-inactivated lysis buffer at the same dilution as the cell lysates (1:80). Usually, a standard curve ranging from 10E6 to 10E2 copies (per well) is suitable.
A typical qPCR reaction consists of the following:
A qPCR cycle consists of an initial denaturation of DNA and activation of the Taq enzyme at 95° C. for 10 min followed by 45 cycles of 15 seconds at 95° C. and 1 min at 60° C. Fluorescence is measured at each cycle, following the elongation step at 60° C. The reaction, data acquisition and analysis are performed using AppliedBiosystems 7500 Real time PCR system or other suitable real-time PCR system.

SMILES	pEC50 (HCMV AD169 virus [1])	pEC50 [2]	pEC50 (HCMV AD169 virus [3])
O=C(Nc1ccc(-c2cnc(-c3cccc(C(F)(F)F)c3)[nH]2)cn1)c1cscn1 [Compound 1052]	5.38	6.35	5.74
O=C(Nc1ccc(-c2nnc(Nc3ccccc3)[nH]2)cc1)c1cscn1 [Compound 1039]	6.26	6.99	6.41
